Data reported in patent publication US20240002391A1, “4-ALKOXYPYRROLO[2,1-F][1,2,4]TRIAZINES AND PREPARATION AND USES THEREOF” (BioSplice Therapeutics, Inc., priority 2022, published 2024).

Molecular target: recombinant DYRK1A kinase (Homo sapiens (Human), UniProt Q13627)
Test: DYRK1A kinase assay (Ser/Thr 18 peptide Z-lyte FRET)
Type: biochemical
Conditions: DYRK1A kinase activity, Z-lyte Ser/Thr 18 peptide, 15 μM ATP; method text calls the value IC50; read-out: EC50 (the source's name)
How it was run: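 Kinase 0.25 μg/mL + ATP 15 μM + Ser/Thr 18 peptide 4 μM, 1 h RT with cpd (10 μM top, 1:3, 11 pts, n=2). Dev. reagent A 1 h RT. Ex 400, Em 455/520 ratio → % phos. → IC50, nonlinear fit.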

Going from `COc1nc(NC2CCC(C)(C#N)CC2)nn2ccc(-c3ccc4nnn(CC(F)F)c4c3)c12` (centres unmarked) [Compound 721, 4-((5-(1-(2,2-Difluoroethyl)-1H-benzo[d][1,2,3]triazol-6-yl)-4-methoxypyrrolo[2,1-f][1,2,4]triazin-2-yl)amino)-1-methylcyclohexane-1-carbonitrile] to `COc1nc(NC2CCC3(CC2)CN(C(C)=O)C3)nn2ccc(-c3ccc4nnn(CC(F)F)c4c3)c12` [Compound 799, 1-(7-((5-(1-(2,2-Difluoroethyl)-1H-benzo[d][1,2,3]triazol-6-yl)-4-methoxypyrrolo[2,1-f][1,2,4]triazin-2-yl)amino)-2-azaspiro[3.5]nonan-2-yl)ethan-1-one], the IC50 falls from 5.7 nM to 1.7 nM (3.4-fold). The second is the more potent here.

Compared with `COCC(=O)N[C@]1(C)C[C@H](Nc2nc(OC)c3c(-c4ccc5nccnc5c4)ccn3n2)C1` [Compound 336, 2-Methoxy-N-(cis-3-((4-methoxy-5-(quinoxalin-6-yl)pyrrolo[2,1-f][1,2,4]triazin-2-yl)amino)-1-methylcyclobutyl)acetamide], `COc1nc(NC2CCOCC2)nn2ccc(-c3ccc4nccnc4c3)c12` [Compound 366, 4-Methoxy-5-(quinoxalin-6-yl)-N-(tetrahydro-2H-pyran-4-yl)pyrrolo[2,1-f][1,2,4]triazin-2-amine] is 1.9-fold higher in IC50: 1.3 nM for the first, 2.5 nM for the second.

First: CNC(=O)[C@]1(C)CC[C@H](Nc2nc(OC)c3c(-c4ccc5nnn(C)c5c4)ccn3n2)CC1 [Compound 225, cis-4-((4-Methoxy-5-(1-methyl-1H-benzo[d][1,2,3]triazol-6-yl)pyrrolo[2,1-f][1,2,4]triazin-2-yl)amino)-N,1-dimethylcyclohexane-1-carboxamide]
Second: COc1nc(N[C@H]2C[C@@](C)(NC(C)=O)C2)nn2ccc(-c3ccc4nnn(C)c4c3)c12 [Compound 205, N-(cis-3-((4-Methoxy-5-(1-methyl-1H-benzo[d][1,2,3]triazol-6-yl)pyrrolo[2,1-f][1,2,4]triazin-2-yl)amino)-1-methylcyclobutyl)acetamide]
The IC50 of the first is 2.7-fold higher: 11.7 nM for the first, 4.3 nM for the second. The second is the more potent here.

Compared with `[2H]C([2H])([2H])O[C@H]1CC[C@@H](Nc2nc(OC)c3c(-c4cnc5nccn5c4)ccn3n2)CC1` [Compound 245, 5-(Imidazo[1,2-a]pyrimidin-6-yl)-4-methoxy-N-(cis-4-(methoxy-d3)cyclohexyl)pyrrolo[2,1-f][1,2,4]triazin-2-amine], `COc1nc(N[C@H]2CC[C@@H](C(F)(F)F)CC2)nn2ccc(-c3cnc4nccn4c3)c12` [Compound 239, 5-(Imidazo[1,2-a]pyrimidin-6-yl)-4-methoxy-N-(cis-4-(trifluoromethyl)cyclohexyl)pyrrolo[2,1-f][1,2,4]triazin-2-amine] is 4.1-fold higher in IC50: 0.7 nM for the first, 2.9 nM for the second. The first is the more potent here.

`COc1nc(N[C@@H]2CCN(CCO)CC2(F)F)nn2ccc(-c3cc(F)c4nc(C)n(CC(F)F)c4c3)c12` [Compound 525, (R)-2-(4-((5-(1-(2,2-Difluoroethyl)-4-fluoro-2-methyl-1H-benzo[d]imidazol-6-yl)-4-methoxypyrrolo[2,1-f][1,2,4]triazin-2-yl)amino)-3,3-difluoropiperidin-1-yl)ethan-1-ol] and `COc1nc(N[C@H]2CCN(C3COC3)C[C@H]2F)nn2ccc(-c3cc(F)c4nc(C)n(CC(F)F)c4c3)c12` [Compound 161, 5-(1-(2,2-Difluoroethyl)-4-fluoro-2-methyl-1H-benzo[d]imidazol-6-yl)-N-((3R,4S)-3-fluoro-1-(oxetan-3-yl)piperidin-4-yl)-4-methoxypyrrolo[2,1-f][1,2,4]triazin-2-amine] are within 1.5-fold of each other in IC50: 2.4 nM for the first, 3 nM for the second.

Going from `COc1nc(N[C@H]2CCN(C3COC3)C[C@H]2F)nn2ccc(-c3ccc4nnn(CCF)c4c3)c12` [Compound 666, N-((3R,4S)-3-Fluoro-1-(oxetan-3-yl)piperidin-4-yl)-5-(1-(2-fluoroethyl)-1H-benzo[d][1,2,3]triazol-6-yl)-4-methoxypyrrolo[2,1-f][1,2,4]triazin-2-amine] to `COc1nc(N[C@H]2CCN(C3COC3)C[C@H]2F)nn2ccc(-c3ccc4nccnc4c3)c12` [Compound 374, N-((3R,4S)-3-Fluoro-1-(oxetan-3-yl)piperidin-4-yl)-4-methoxy-5-(quinoxalin-6-yl)pyrrolo[2,1-f][1,2,4]triazin-2-amine], the IC50 rises from 1.1 nM to 2.9 nM (2.6-fold).

Going from `COc1nc(N[C@@H](C)c2ccccn2)nn2ccc(-c3ccn4nccc4c3)c12` [Compound 393, (S)-4-Methoxy-5-(pyrazolo[1,5-a]pyridin-5-yl)-N-(1-(pyridin-2-yl)ethyl)pyrrolo[2,1-f][1,2,4]triazin-2-amine] to `COc1nc(N[C@H]2CC[C@H](NC(C)=O)CC2)nn2ccc(-c3ccn4nccc4c3)c12` [Compound 18, N-(trans-4-((4-Methoxy-5-(pyrazolo[1,5-a]pyridin-5-yl)pyrrolo[2,1-f][1,2,4]triazin-2-yl)amino)cyclohexyl)acetamide], the IC50 falls from 178 nM to 7.4 nM (24-fold).

First: COc1nc(N[C@H]2C[C@](C)(NC(C)=O)C2)nn2cc(F)c(-c3ccc4ncnn4c3)c12 [Compound 585, N-((1r,3r)-3-((5-([1,2,4]Triazolo[1,5-a]pyridin-6-yl)-6-fluoro-4-methoxypyrrolo[2,1-f][1,2,4]triazin-2-yl)amino)-1-methylcyclobutyl)acetamide]
Second: COc1nc(N[C@H]2C[C@](C)(NC(=O)C3(C#N)CC3)C2)nn2ccc(-c3ccc4ncnn4c3)c12 [Compound 563, N-((1r,3r)-3-((5-([1,2,4]Triazolo[1,5-a]pyridin-6-yl)-4-methoxypyrrolo[2,1-f][1,2,4]triazin-2-yl)amino)-1-methylcyclobutyl)-1-cyanocyclopropane-1-carboxamide]
The IC50 of the first is 2.2-fold higher: 2.2 nM for the first, 1 nM for the second.

Going from `COc1nc(N[C@@H]2CN(C3COC3)C[C@@H]2F)nn2ccc(-c3cnc4nccn4c3)c12` [Compound 266, N-((3R,4S)-4-Fluoro-1-(oxetan-3-yl)pyrrolidin-3-yl)-5-(imidazo[1,2-a]pyrimidin-6-yl)-4-methoxypyrrolo[2,1-f][1,2,4]triazin-2-amine] to `COc1nc(NC2CCC(C)(C#N)CC2)nn2ccc(-c3cnc4nccn4c3)c12` (centres unmarked) [Compound 948, 4-((5-(Imidazo[1,2-a]pyrimidin-6-yl)-4-methoxypyrrolo[2,1-f][1,2,4]triazin-2-yl)amino)-1-methylcyclohexane-1-carbonitrile], the IC50 falls from 2.9 nM to 0.4 nM (7.2-fold).

Going from `CCN1CC[C@@H](Nc2nc(OC)c3c(-c4ccc5nccnc5c4)ccn3n2)C(F)(F)C1` [Compound 1095, (R)—N-(1-Ethyl-3,3-difluoropiperidin-4-yl)-4-methoxy-5-(quinoxalin-6-yl)pyrrolo[2,1-f][1,2,4]triazin-2-amine] to `COc1nc(N[C@@H]2CCN(C(C)=O)CC2(F)F)nn2ccc(-c3ccc4nnn(CCF)c4c3)c12` [Compound 669, (R)-1-(3,3-Difluoro-4-((5-(1-(2-fluoroethyl)-1H-benzo[d][1,2,3]triazol-6-yl)-4-methoxypyrrolo[2,1-f][1,2,4]triazin-2-yl)amino)piperidin-1-yl)ethan-1-one], the IC50 falls from 4 nM to 1.6 nM (2.5-fold). The second is the more potent here.

Going from `C[C@]1(O)CC[C@H](Nc2nc(O)c3c(-c4ccc5nccnc5c4)ccn3n2)CC1` [Compound 346, 2-((trans-4-Hydroxy-4-methylcyclohexyl)amino)-5-(quinoxalin-6-yl)pyrrolo[2,1-f][11,2,4]triazin-4-ol] to `COc1nc(N[C@H]2C[C@@](C)(N(C)C)C2)nn2ccc(-c3ccc4ncccc4c3)c12` [Compound 1043, cis-N3-(4-Methoxy-5-(quinolin-6-yl)pyrrolo[2,1-f][1,2,4]triazin-2-yl)-N1,N1,1-trimethylcyclobutane-1,3-diamine], the IC50 falls from 34.4 nM to 2.8 nM (12-fold).

Going from `COc1nc(N[C@H]2C[C@@H](OCCO)C2)nn2ccc(-c3ccc4nnn(CC(F)(F)F)c4c3)c12` [Compound 904, 2-(cis-3-((4-Methoxy-5-(1-(2,2,2-trifluoroethyl)-1H-benzo[d][1,2,3]triazol-6-yl)pyrrolo[2,1-f][1,2,4]triazin-2-yl)amino)cyclobutoxy)ethan-1-ol] to `COc1nc(N[C@H]2CCN(C(=O)C3(C#N)CC3)C[C@H]2F)nn2ccc(-c3ccc4nnn(CC(F)F)c4c3)c12` [Compound 776, 1-((3R,4S)-4-((5-(1-(2,2-Difluoroethyl)-1H-benzo[d][1,2,3]triazol-6-yl)-4-methoxypyrrolo[2,1-f][1,2,4]triazin-2-yl)amino)-3-fluoropiperidine-1-carbonyl)cyclopropane-1-carbonitrile], the IC50 falls from 1.8 nM to 0.5 nM (3.6-fold).

Going from `CNC(=O)C12CC(Nc3nc(OC)c4c(-c5ccc6nnn(C)c6c5)ccn4n3)(C1)C2` [Compound 226, 3-((4-Methoxy-5-(1-methyl-1H-benzo[d][1,2,3]triazol-6-yl)pyrrolo[2,1-f][1,2,4]triazin-2-yl)amino)-N-methylbicyclo[1.1.1]pentane-1-carboxamide] to `COc1nc(N[C@H]2CCN(C3(C#N)COC3)C[C@H]2F)nn2ccc(-c3ccc4nnn(C(C)C)c4c3)c12` [Compound 690, 3-((3R,4S)-3-fluoro-4-((5-(1-isopropyl-1H-benzo[d][1,2,3]triazol-6-yl)-4-methoxypyrrolo[2,1-f][1,2,4]triazin-2-yl)amino)piperidin-1-yl)oxetane-3-carbonitrile], the IC50 rises from 3.2 nM to 7.8 nM (2.4-fold).

First: COc1nc(N[C@H]2CC[C@@H](OC)CC2)nn2ccc(-c3ccc4nccn4c3)c12 [Compound 45, 5-(Imidazo[1,2-a]pyridin-6-yl)-4-methoxy-N-(cis-4-methoxycyclohexyl)pyrrolo[2,1-f][1,2,4]triazin-2-amine]
Second: COc1nc(N[C@H]2C[C@@](C)(O)C2)nn2ccc(-c3cc4ccncc4[nH]3)c12 [Compound 283, cis-3-((4-Methoxy-5-(1H-pyrrolo[2,3-c]pyridin-2-yl)pyrrolo[2,1-f][1,2,4]triazin-2-yl)amino)-1-methylcyclobutan-1-ol]
The IC50 of the first is 12-fold lower: 9.3 nM for the first, 110 nM for the second.

In the case of `COc1nc(N[C@H]2C[C@](C)(NC(C)=O)C2)nn2ccc(-c3cc(F)c4nnn(CC(F)F)c4c3)c12` [Compound 806, N-((1r,3r)-3-((5-(1-(2,2-Difluoroethyl)-4-fluoro-1H-benzo[d][1,2,3]triazol-6-yl)-4-methoxypyrrolo[2,1-f][1,2,4]triazin-2-yl)amino)-1-methylcyclobutyl)acetamide], the IC50 is reported as 1.4 nM.
